Assay results published in article PMC11784145, “Efficacy and in vitro pharmacological assessment of novel N-hydroxypyridinediones as hepatitis B virus ribonuclease H inhibitors” (Antimicrobial Agents and Chemotherapy, 2024).
Values joined by “and” are separate entries in the source; they are usually repeats but may differ in a detail not shown here. Identical values can stand only once.

Key:
[1] = Parallel artificial membrane permeability assay (PAMPA); type: in vitro ADME
Experimental: Compound Papp values were determined by normalizing the experimental compound absorbance to the compounds’ absorbances at equilibrium, membrane porosity, buffer volume, and time (s). Two or more replicate assays were obtained on separate days for each pH.

HepDES19 cells = conditions: read-out: HepDES19 CC50; 72 h, MTS; highest concentration tested 100 µM; mean ± SD
Experimental: HepDES19 cells were plated on 96-well tissue culture-treated plates (Greiner) at 1.0 × 10^4 cells per well and incubated for 48 h. Cells were treated with titrated concentrations of compound or 1% DMSO vehicle for 72 h, and cellular viability was measured by 3-(4,5-dimethylthiazol-2-yl)−5-(3-carboxymethoxyphenyl)−2-(4-sulfophenyl)−2H-tetrazolium (MTS) assays, as described previously ([20]). […] Three or more replicate assays were done on different days.

[2] = Solubility limit, turbidimetric assay; type: physicochemical; conditions: upper limit 200 µM
Experimental: Solubility limits were determined by a turbidimetric assay, as described ([27]), with the solubility limit being defined as the compound concentration where light scattering began to rise. Two or more replicate assays were performed for each compound at each pH on different days.

Microsome stability = type: in vitro ADME, human
[3] = target: T1, human ribonuclease H1 (huRNase H1) (Homo sapiens, UniProt O60930); experiment: Human RNase H1 inhibition, fluorescent biochemical assay
T1 construct: made in house; host or cells: Escherichia coli
T1 sequence (O60930 1-286): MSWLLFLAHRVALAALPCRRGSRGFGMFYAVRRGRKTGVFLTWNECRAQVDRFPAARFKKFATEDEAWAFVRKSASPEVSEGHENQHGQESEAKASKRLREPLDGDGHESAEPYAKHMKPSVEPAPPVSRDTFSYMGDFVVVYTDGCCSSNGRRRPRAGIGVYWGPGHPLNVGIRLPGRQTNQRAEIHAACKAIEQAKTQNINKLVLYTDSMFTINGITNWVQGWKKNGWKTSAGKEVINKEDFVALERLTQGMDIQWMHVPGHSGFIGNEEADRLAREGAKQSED
Experimental: Recombinant human ribonuclease H1 (huRNase H1) was expressed in Escherichia coli and purified by nickel affinity chromatography, as described previously ([30]). […] The heteroduplex substrate was prepared, as described by Ponzar et al. ([30]). Reactions were initiated by the addition of MgCl2 (5 mM final) and were performed on a Biotek Synergy HTX multi-mode plate reader at 28°C.
Maximum rates of fluorescence increase were calculated using the Biotek Gen5 v3.15 software and percentage activity was determined for each compound concentration by subtracting rates from no enzyme reactions and normalizing to DMSO reactions. […] Reactions were performed at least three times on separate days.

CYP3A4 mRNA expression = experiment: CYP3A4 induction, RT-qPCR in HepG2 cells; conditions: 10 µM, 24 or 48 h, normalized to GAPDH and DMSO
Experimental: HepG2 cells were seeded on 12-well, tissue-culture-treated plates (Sarstedt) at 2.5 × 10^5 cells/well for 24 h. Cells were treated with 10 µM compound or 1% DMSO for 48 h with replenishment at 24 h. Cells were rinsed with PBS and lysed at 0, 24, and 48 h using TRI Reagent (Sigma Aldrich). […] Cellular DNA was degraded using DNase I (Invitrogen), according to the manufacturer’s instructions.
Complementary DNA (cDNA) synthesis employed the ProtoScript II First Strand cDNA Synthesis Kit (New England Biolabs) according to the manufacturer’s instructions with an additional incubation step at 25°C for 5 min. Reverse transcriptase-qPCR (RT-qPCR) was performed using a Quantstudio 5 (Thermo Fisher) in a final reaction volume of 20 µL with 4 µL cDNA template, 2× KAPA probe force master mix (Roche), 300 nM probe, and 100 nM forward and reverse primer. CYP3A4 expression was determined by normalizing the experimental sample cycle threshold values to DMSO-treated wells. GAPDH was used as a housekeeping gene.

MDCK-MDR1 cells = experiment: MDCK-MDR1 permeability assay; type: in vitro ADME; conditions: 10 µM compound, 2 h; for Efflux Ratio (Papp B-A/A-B): MDCK-MDR1 cells, actively effluxed if >2
Experimental: MDCK-MDR1 cells were seeded on 96-well, high protein binding immobilon-P membrane plates (Millipore Sigma) at 2.4 × 10^4 cells per well for 4 days. Media were then decanted, and the cells were equilibrated with Hanks balanced salt solution (HBSS) supplemented with 10 mM CaCl2 and 1 mM MgCl2 for 1 h. Compound (10 µM) was then added to the apical side to assess active transport and to the basolateral side to assess active efflux. The cells were incubated with compound for 2 h with shaking at 37°C. Samples (50 µL) were retrieved from the recipient wells and mixed with 150 µL acetonitrile (ACN) and internal standard (1:1 of 200 ng/mL chloridazon:enalapril). Samples were pelleted at 4,000 × g and the supernatant was analyzed by liquid-chromatography/tandem mass spectrometry (LCMS/MS) analyses. […]. Active efflux was determined by Papp B/A/Papp A/B.
Tight junction formation was assessed by lucifer yellow permeation immediately following sample retrieval. Briefly, lucifer yellow (10 µM) was added to the apical wells and HBSS was added to the basolateral wells for 1 h with shaking at 37°C, after which sample was collected from the basolateral side and read on a Biotek Synergy HTX multi-mode plate reader with 485/20 excitation and 520/20 emission filters defined by the Center Wavelength/band-pass values. The percent lucifer yellow fluorescence was determined by subtracting the HBSS relative fluorescent units (RFU) from the sample RFU and normalizing to the lucifer yellow positive control RFU. Lucifer yellow permeation was determined to be acceptable if ≤3%.

plasma proteins = experiment: Plasma protein binding, rapid equilibrium dialysis; type: in vitro ADME, bovine; conditions: 10 µM compound, DMEM-F12 with 10% FBS (0.25 mg/mL BSA), 4 h, 37°C
Experimental: Plasma protein binding was performed using the Pierce rapid equilibrium dialysis device (Thermo Fisher) per the manufacturer’s instructions, as described ([27]). Briefly, the sample wells contained DMEM-F12 supplemented with 10% FBS spiked with 10 µM compound, and the buffer wells contained phosphate-buffered saline (PBS). The plate was incubated for 4 h at 37°C with shaking, after which 50 µL was retrieved from the buffer and sample wells and added to ice-cold acetonitrile and the internal standard described above. Samples were matrix-matched with PBS supplemented with 10% FBS or PBS alone, respectively, and centrifuged at 4,000 × g for 5 min to pellet plasma proteins. The supernatants were analyzed by LCMS/MS and percent compound bound was determined, as described previously ([27]).

[4] = test system: HBV replication (HBV plus-polarity DNA strand); experiment: HBV replication inhibition, strand preferential qPCR in hepDES19 cells; type: cell-based, hepatitis B virus; conditions: for EC50: 72 h exposure, HBV plus-polarity strand suppression, highest concentration tested 100 µM, mean ± SD, read-out: HepDES19 EC50
Experimental: HBV replication inhibition was measured in hepDES19 cells following 72 h compound exposure without compound replenishment. EC50 values were determined by HBV plus-polarity strand suppression using a strand preferential qPCR assay, as described previously ([28]). Three or more replicate values were obtained on different days.

CYP2C9 = target: T2, CYP2C9 (Homo sapiens, UniProt P11712); experiment: Cytochrome P450 inhibition, Vivid 2C9 BOMF Green kit; type: in vitro ADME; conditions: 10 µM compound
T2 construct: purchased Thermo Fisher Vivid 2C9 BOMF Green
Experimental: (§1) Compound inhibition of Cytochrome P (CYP) 3A4, 2C9, and 2D6 was determined using Vivid CYP450 screening kits (Thermo Fisher) according to the manufacturer’s instructions, as described previously ([27]). The kits employed were: Vivid 3A4 DBOMF Green, 2C9 BOMF Green, and 2D6 EOMCC Blue. Reactions were initiated by addition of the fluorophore-conjugated substrates with Vivid NADP^+ and were conducted at 37°C using either a Biotek Synergy HTX multi-mode plate reader with 485/20 nm excitation and 520/20 nm emission filters (green-fluorescent substrate), or a Tecan Spark plate reader with monochromator settings at 415/20 nm excitation and 460/20 nm emission (blue-fluorescent substrate) defined by the Center Wavelength/band-pass values. Substrate cleavage was detected every 60 s.
(§2) Compounds were initially screened against each enzyme at 10 µM and maximum rates of fluorescence in RFU were calculated using the Biotek Gen5 v3.11 software. Percent inhibition of experimental compound reactions was normalized to the rate to DMSO vehicle reactions. Positive controls used were: CYP3A4—ketoconazole (Sigma Aldrich), CYP2C9—sulfaphenazole (Cayman Chemical), and CYP2D6—quinidine (Fisher Scientific). […] IC50 values were determined using the four-parameter log[inhibitor] versus response algorithm in GraphPad Prism. […]

CYP3A4 = target: T3, CYP3A4 (Homo sapiens, UniProt P08684); experiment: Cytochrome P450 inhibition, Vivid 3A4 DBOMF Green kit; type: in vitro ADME; conditions: 10 µM compound
T3 construct: purchased Thermo Fisher Vivid 3A4 DBOMF Green
Experimental: as §1, §2

[5] = pH 5 (fed simulated intestinal fluid)
[6] = pH 6.5 (fasted simulated intestinal fluid)
[7] = human liver microsomes, 1 µM compound, 30 min, NADPH

T3 sequence (P08684 whole entry): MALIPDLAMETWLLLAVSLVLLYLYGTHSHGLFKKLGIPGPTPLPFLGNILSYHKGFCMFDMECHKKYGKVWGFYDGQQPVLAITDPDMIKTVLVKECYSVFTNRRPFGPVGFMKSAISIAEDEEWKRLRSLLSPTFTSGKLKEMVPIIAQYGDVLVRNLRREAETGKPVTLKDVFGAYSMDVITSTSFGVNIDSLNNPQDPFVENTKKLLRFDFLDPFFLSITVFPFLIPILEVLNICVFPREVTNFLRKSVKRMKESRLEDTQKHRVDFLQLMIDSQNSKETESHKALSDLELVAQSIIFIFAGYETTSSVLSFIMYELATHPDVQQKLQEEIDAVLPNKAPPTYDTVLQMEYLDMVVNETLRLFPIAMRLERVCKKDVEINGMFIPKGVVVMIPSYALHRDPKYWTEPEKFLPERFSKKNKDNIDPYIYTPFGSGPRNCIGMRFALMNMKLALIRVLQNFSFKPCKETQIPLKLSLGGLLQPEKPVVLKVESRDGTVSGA
T2 sequence (P11712 whole entry): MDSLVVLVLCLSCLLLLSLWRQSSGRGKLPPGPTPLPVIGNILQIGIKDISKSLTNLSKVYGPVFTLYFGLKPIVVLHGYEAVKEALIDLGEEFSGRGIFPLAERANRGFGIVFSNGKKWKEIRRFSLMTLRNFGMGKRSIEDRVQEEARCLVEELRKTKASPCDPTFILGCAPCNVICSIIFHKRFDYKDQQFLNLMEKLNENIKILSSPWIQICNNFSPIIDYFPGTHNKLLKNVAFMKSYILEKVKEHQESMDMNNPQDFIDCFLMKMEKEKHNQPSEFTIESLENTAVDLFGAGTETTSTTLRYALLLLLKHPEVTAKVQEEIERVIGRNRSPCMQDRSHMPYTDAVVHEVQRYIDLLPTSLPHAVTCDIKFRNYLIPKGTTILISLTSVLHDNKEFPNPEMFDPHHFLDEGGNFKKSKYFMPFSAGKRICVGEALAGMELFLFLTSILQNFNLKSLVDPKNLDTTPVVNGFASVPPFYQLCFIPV

| SMILES | Avg Papp (PAMPA) ([1]; FeSSIF pH 5) | Interpretation (PAMPA Papp) ([1]; FeSSIF pH 5) | Papp 1 (PAMPA) ([1]; FeSSIF pH 5, replicate 1) | Papp 2 (PAMPA) ([1]; FeSSIF pH 5, replicate 2) | Avg Papp (PAMPA) ([1]; pH 7.4) | Interpretation (PAMPA Papp) ([1]; pH 7.4) | Papp 2 (PAMPA) ([1]; pH 7.4, replicate 2) | CC50 (HepDES19 cells) | Average Sol (solubility limit) [2, 5] | Sol 1 (solubility limit) ([2]; pH 5, replicate 1) | Sol 2 (solubility limit) ([2]; pH 5, replicate 2) | Average Sol (solubility limit) [2, 6] | Sol 1 (solubility limit) ([2]; pH 6.5, replicate 1) | Sol 2 (solubility limit) ([2]; pH 6.5, replicate 2) | Average Sol (solubility limit) ([2]; pH 7.4 (DMEM-F12 with 10% FBS)) | Sol 1 (solubility limit) ([2]; pH 7.4, replicate 1) | Sol 2 (solubility limit) ([2]; pH 7.4, replicate 2) | Efflux Ratio (Papp B-A/A-B) (MDCK-MDR1 cells) | HepDES19 SI (CC50/EC50) [4] | EC50 [4] | also measured |
| --- | --- | --- | --- | --- | --- | --- | --- | --- | --- | --- | --- | --- | --- | --- | --- | --- | --- | --- | --- | --- | --- |
| CC(=NOCc1cccc(C)c1)c1c(C)cc(=O)n(O)c1O [Compound 1620] | 18.9 ×10⁻⁶ cm/s | H (H: Papp > 1*10-6) | 22.9 ×10⁻⁶ cm/s | 14.9 ×10⁻⁶ cm/s | 1.38 ×10⁻⁶ cm/s | H (H: Papp > 1*10-6) | 1.38 ×10⁻⁶ cm/s | > 100 µM | > 200 µM | > 200 µM | > 200 µM | > 200 µM | > 200 µM | > 200 µM | > 200 µM | > 200 µM | > 200 µM | 1.39 | 526 | 0.19 ± 0.087 µM | Papp 1 (PAMPA) ([1]; pH 7.4, replicate 1): 1.38 ×10⁻⁶ cm/s; Intrinsic clearance (Clint) rate category (Microsome stability; human liver microsomes): low (low Clint (µL/min/mg protein) rates (<8.6)); Clearance (intrinsic clearance, Clint) (Microsome stability; [7]): 7.00 µL/min/mg; Half-life (Microsome stability; [7]): >30 min; Selectivity of HBV replication inhibition over huRNase H1 (huRNase H1 IC50 versus HBV EC50) [3]: at least 10 fold; CYP3A4 mRNA expression increase (CYP3A4 mRNA expression): < 2 fold; MDCK-MDR1 Papp category, apical to basolateral (A-B) (MDCK-MDR1 cells): high (high (≥1*10^−6 cm/s)); MDCK-MDR1 Papp category, basolateral to apical (B-A) (MDCK-MDR1 cells): high (high (≥1*10^−6 cm/s)); Percent bound (plasma proteins): 85.8 ± 13.2% |
| CC(=NOCc1ccc(OCc2ccc3ccccc3c2)cc1)c1c(C)cc(=O)n(O)c1O [Compound 1899] | 5.61 ×10⁻⁶ cm/s | H (H: Papp > 1*10-6) | 6.93 ×10⁻⁶ cm/s | 4.29 ×10⁻⁶ cm/s | 1.84 ×10⁻⁶ cm/s | H (H: Papp > 1*10-6) | 1.08 ×10⁻⁶ cm/s | 68.6 ± 24.3 µM | > 200 µM | > 200 µM | > 200 µM | > 200 µM | > 200 µM | > 200 µM | > 200 µM | > 200 µM | > 200 µM | 2.28 and > 2 | 40.7 | 1.92 ± 0.7 µM | Papp 1 (PAMPA) ([1]; PAMPA, pH 7.4): 2.28 ×10⁻⁶ cm/s; Papp 3 (PAMPA) ([1]; pH 7.4, replicate 3): 2.16 ×10⁻⁶ cm/s; Percent inhibition of CYP2C9 (CYP2C9): 46%; Clearance (intrinsic clearance, Clint) (Microsome stability; human, microsomes): 35.6 µL/min/mg; Half-life (Microsome stability; human, microsomes): 29.6 min; Percent inhibition of CYP3A4 (CYP3A4): ~ 42% |
